Target: CDK9 (Homo sapiens, UniProt P50750)
Assay: CeTSA isothermal dose-response at […] °C in intact LNCaP cells, immunoblot
Format: cell-based

Sequence of CDK9 (P50750 whole entry): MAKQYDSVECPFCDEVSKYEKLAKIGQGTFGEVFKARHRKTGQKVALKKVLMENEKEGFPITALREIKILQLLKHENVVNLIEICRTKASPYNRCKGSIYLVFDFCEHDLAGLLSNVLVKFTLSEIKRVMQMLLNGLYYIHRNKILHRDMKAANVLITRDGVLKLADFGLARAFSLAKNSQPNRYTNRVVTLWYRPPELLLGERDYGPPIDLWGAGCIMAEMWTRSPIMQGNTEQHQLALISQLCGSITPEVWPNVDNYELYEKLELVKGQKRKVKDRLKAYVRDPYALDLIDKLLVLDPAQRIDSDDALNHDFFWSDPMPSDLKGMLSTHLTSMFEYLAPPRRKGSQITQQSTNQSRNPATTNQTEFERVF

## CC(C)c1cnn2c(NCc3ccccc3)cc(NC[C@H]3CCNC[C@@H]3O)nc12 [CT7001]
  CeTSA isothermal dose-response at 54 °C in intact LNCaP cells, immunoblot: has a degree of engagement also with CDK2 and CDK9 at higher concentrations

— PMC10241923 (British Journal of Cancer, 2023)
